Data: patent US20220226283A1, “COMBINATION PRODUCT CONTAINING LIMONOID COMPOUND AND DPP-4 INHIBITOR” (ZHEJIANG YANGSHENGTANG INSTITUTE OF NATURAL MEDICATION CO., …, priority 2019, published 2022)

Test system: mouse model of type II diabetes with pancreatic islet damage and obesity (ICR mice, STZ and high-fat diet)
Assay: Blood glucose in mouse type II diabetes model with pancreatic islet damage and obesity (limonoid compound, alogliptin or combination)
Format: in vivo
Conditions: single administration 0.5 g/kg per day by gavage, two weeks, 1 h after the last administration, mean ± SD
Source text: In this example, a mouse model of type II diabetes with pancreatic islet damage and obesity was established by multiple modeling ICR mice with a small dose of streptozotocin (STZ), following with continuous high-fat diets (referring to literature: Zhang Jiyuan et al, Study on the effect of three plant extracts on improving glucose and lipid metabolism in type 2 diabetic mice, Food and Machinery, 2016, 32 (12): 142-147). […]
Experimental grouping: 15 male mice were randomly selected as the normal control group, and the remaining mice were subjected to a high-fat diet (high-fat diet formula: cholesterol 1%, egg yolk powder 10%, lard oil 10%, and basic feed 79%, for establishing an obesity mouse model) for consecutive 4 weeks and intraperitoneal injection of STZ at a dose of 35 mg/kg for three consecutive days. After one week, the mice were subject to 24 hours of fasting and water deprivation, their fasting blood glucose was measured, and the mice with a blood glucose level of 15 to 25 mmol/L were selected and undifferentiatedly grouped and used in the experiment, continuously subjected to the high-fat diet, 15 mice in each group, and subjected to blood sampling and detection of indicators after 2 weeks of administration. […]

Structure (SMILES): Cn1c(=O)cc(N2CCC[C@@H](N)C2)n(Cc2ccccc2C#N)c1=O [Alogliptin, alogliptin]
- Blood glucose value: 14.5 ± 2.8 mmol/L
